Paper PMC8954547, “Nonpeptidic Z360-Analogs Tagged with Trivalent Radiometals as Anti-CCK2R Cancer Theranostic Agents: A Preclinical Study” (Pharmaceutics, 2022)

What was measured:
[1] = Radioligand stability in mice (radio-HPLC of blood and urine); type: in vivo; settings: mean ± SD
Outline: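 Male Swiss albino mice (n=3) given 2.5–3 nmol radioligand i.v. via tail vein in saline/EtOH 9/1. Blood at 5 min and urine at 30 min pi, EDTA-treated on ice, MeCN-deproteinised, analysed by radio-RP-HPLC; value is mean percent intact radioligand ± SD.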

[2] = test system: SCID mice bearing twin HEK293-CCK2i4svR and wtHEK293 tumors; assay: Biodistribution in SCID mice bearing twin HEK293-CCK2i4svR and wtHEK293 xenografts; type: in vivo
Outline: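 Uptake is expressed as %IA/g (mean ± SD, n = 4) from gamma counting of blood, organs and tumours collected at set times: 1, 4 and 24 h pi for ^67Ga, 4 and 24 h for ^111In (±gelofusine), 4–96 h for ^177Lu. Radioligands were given iv at 7–40 pmol to SCID mice bearing twin CCK2i4svR-transfected and wild-type HEK293 xenografts.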

[3] = test system: HEK293-CCK2i4svR and wtHEK293 xenografts; assay: SPECT/CT of HEK293-CCK2i4svR and wtHEK293 xenografts; type: in vivo, mice; settings: 4 h and 24 h pi
Method: For SPECT/CT imaging, six mice bearing twin HEK293-CCK2i4svR and wtHEK293 tumors were injected in the tail vein with a bolus containing [^111In]In-GAS1/2/3 (100 μL, 9–12 MBq associated with 3 nmol total injected analog in-vehicle: saline/EtOH 9/1 v/v). Mice were euthanized at 4 h and 24 h pi. Tomographic SPECT/CT imaging was performed with the y-CUBE/x-CUBE systems (Molecubes, Belgium). The SPECT system is based on monolithic NaI detectors attached to SiPMs, with a 0.6 mm intrinsic resolution. The CT system is based on a structured CMOS detector of CsI with pixels of 75 µm and operates between 35–80 kVp, 10–500 µA tube current, with a 33 µm fixed focal spot size. SPECT scans were acquired 4 h pi and 24 h pi, with a 40–50 min duration protocol based on the injected activity, and each SPECT scan was succeeded by a CT scan, following General-Purpose protocol under 50 kVp, for co-registration purposes. SPECT images were reconstructed using the MLEM reconstruction method with a 250 µm voxel size and 500 iterations. CT images were reconstructed using the ISRA reconstruction method with a 100 µm voxel size.
Images were exported and post-processed on VivoQuant software, version 4.0 (Invicro, Boston). A smoothing median filter (0.6 mm, spherical window) was applied to the images, and the bladder was removed for consistency purposes. Normalization of images was performed (i.e., all images having the same color scale range values) to achieve a direct visual comparison between the different groups.

[4] = 4 h + Gelo (Gelofusine-treated mice)
[5] = 24 h + Gelo (Gelofusine-treated mice)

- Intact radioligand in blood ([1]; mice blood collected 5 min pi): 84.6 ± 2.4 (3) %
- Intact radioligand in urine ([1]; mice urine collected 30 min pi): 85.2 ± 5.2 (3) %
- Biodistribution, Blood [2, 4]: 2.75 ± 0.48 %IA/g
- Biodistribution, CCK2i4svR(+) Tumor [2, 4]: 19.17 ± 2.06 %IA/g
- Biodistribution, CCK2i4svR(-) Tumor [2, 4]: 0.86 ± 0.15 %IA/g
- Biodistribution, Femur [2, 4]: 0.65 ± 0.15 %IA/g
- Biodistribution, Heart [2, 4]: 0.92 ± 0.16 %IA/g
- Biodistribution, Intestines [2, 4]: 1.87 ± 0.08 %IA/g
- Biodistribution, Kidneys [2, 4]: 5.93 ± 0.56 %IA/g
- Biodistribution, Liver [2, 4]: 6.34 ± 0.86 %IA/g
- Biodistribution, Muscle [2, 4]: 0.28 ± 0.06 %IA/g
- Biodistribution, Pancreas [2, 4]: 1.47 ± 0.26 %IA/g
- Biodistribution, Spleen [2, 4]: 1.13 ± 0.28 %IA/g
- Biodistribution, Stomach [2, 4]: 0.77 ± 0.14 %IA/g
- Biodistribution, Blood ([2]; 4 h pi): 3.51 ± 0.56 %IA/g
- Biodistribution, CCK2i4svR(+) Tumor ([2]; 4 h pi): 17.79 ± 1.73 %IA/g
- Biodistribution, CCK2i4svR(-) Tumor ([2]; 4 h pi): 0.73 ± 0.05 %IA/g
- Biodistribution, Femur ([2]; 4 h pi): 0.77 ± 0.13 %IA/g
- Biodistribution, Heart ([2]; 4 h pi): 1.10 ± 0.19 %IA/g
- Biodistribution, Intestines ([2]; 4 h pi): 3.37 ± 0.89 %IA/g
- Biodistribution, Kidneys ([2]; 4 h pi): 6.06 ± 1.24 %IA/g
- Biodistribution, Liver ([2]; 4 h pi): 7.69 ± 1.00 %IA/g
- Biodistribution, Lungs ([2]; 4 h pi): 2.23 ± 0.39 %IA/g
- Biodistribution, Muscle ([2]; 4 h pi): 0.26 ± 0.04 %IA/g
- Biodistribution, Pancreas ([2]; 4 h pi): 1.49 ± 0.19 %IA/g
- Biodistribution, Spleen ([2]; 4 h pi): 1.56 ± 0.22 %IA/g
- Biodistribution, Stomach ([2]; 4 h pi): 0.98 ± 0.21 %IA/g
- Biodistribution, Blood [2, 5]: 0.07 ± 0.01 %IA/g
- Biodistribution, CCK2i4svR(+) Tumor [2, 5]: 4.51 ± 0.55 %IA/g
- Biodistribution, CCK2i4svR(-) Tumor [2, 5]: 0.23 ± 0.04 %IA/g
- Biodistribution, Femur [2, 5]: 0.16 ± 0.01 %IA/g
- Biodistribution, Heart [2, 5]: 0.15 ± 0.02 %IA/g
- Biodistribution, Intestines [2, 5]: 0.49 ± 0.13 %IA/g
- Biodistribution, Kidneys [2, 5]: 1.69 ± 0.13 %IA/g
- Biodistribution, Liver [2, 5]: 1.30 ± 0.15 %IA/g
- Biodistribution, Lungs [2, 5]: 0.39 ± 0.03 %IA/g
- Biodistribution, Muscle [2, 5]: 0.06± 0.01 %IA/g
- Biodistribution, Pancreas [2, 5]: 0.14 ± 0.01 %IA/g
- Biodistribution, Spleen [2, 5]: 0.48 ± 0.08 %IA/g
- Biodistribution, Stomach [2, 5]: 0.25 ± 0.04 %IA/g
- Biodistribution, Blood ([2]; 24 h pi): 0.08 ± 0.01 %IA/g
- Biodistribution, CCK2i4svR(+) Tumor ([2]; 24 h pi): 5.40 ± 1.13 %IA/g
- Biodistribution, CCK2i4svR(-) Tumor ([2]; 24 h pi): 0.27 ± 0.10 %IA/g
- Biodistribution, Femur ([2]; 24 h pi): 0.16 ± 0.03 %IA/g
- Biodistribution, Heart ([2]; 24 h pi): 0.15 ± 0.03 %IA/g
- Biodistribution, Intestines ([2]; 24 h pi): 0.59 ± 0.11 %IA/g
- Biodistribution, Kidneys ([2]; 24 h pi): 1.84 ± 0.38 %IA/g
- Biodistribution, Liver ([2]; 24 h pi): 2.27 ± 0.30 %IA/g
- Biodistribution, Lungs ([2]; 24 h pi): 0.36 ± 0.05 %IA/g
- Biodistribution, Muscle ([2]; 24 h pi): 0.06± 0.00 %IA/g
- Biodistribution, Pancreas ([2]; 24 h pi): 0.18 ± 0.03 %IA/g
- Biodistribution, Spleen ([2]; 24 h pi): 0.64 ± 0.12 %IA/g
- Biodistribution, Stomach ([2]; 24 h pi): 0.21 ± 0.05 %IA/g
- SPECT/CT uptake in CCK2i4svR expressing tumors [3]: Intense uptake
- SPECT/CT uptake in wtHEK293 tumors devoid of CCK2i4svR expression [3]: no uptake is evident
Compound: CC(C)(C)C(=O)CN1C(=O)[C@H](NC(=O)Nc2cccc(C(=O)NCCOCCOCCOCCNC(=O)[C@H](CCC(=O)O)NC(=O)CN3CCN(CC(=O)[O-])CCN(CC(=O)[O-])CCN(CC(=O)[O-])CC3)c2)CN(C2CCCCC2)c2ccccc21.[111In+3] (stereo in doubt) [[^111In]In-GAS1]
